Measurements published in US11723889B2, “Amyloid fiber formation limiter or inhibitor” (Omoidesouzou Co., Ltd., priority 2014, dated 2023).

Assays:
Assay type in all cases: in vivo, human
Alzheimer's disease = test: Oral tranilast in a patient with Alzheimer's disease (Case 5), testing methods for dementia HDS-R and MMSE
Experimental: (§1) 2. Confirmation that the agent for suppressing or inhibiting an amyloid fibril formation of the present invention has a therapeutic effect against cerebral amyloidosis. Because it was shown that tranilast has the effect of suppressing amyloid fibril formation in the skin, whether dementia and Alzheimer's disease arising from amyloid fibril deposition in the brain could be ameliorated was studied. A patient with Alzheimer's disease (person) was administered orally with a 100 mg capsule of tranilast (brand name: Rizaben, Kissei Pharmaceutical Co., Ltd.) three times a day. About 5 months after the start of administration of tranilast on Oct.

cutaneous amyloidosis = test: Oral tranilast treatment of patients with cutaneous amyloidosis / cutaneous lichen amyloidosis (Cases 1-3), clinical observation of skin symptoms
Source text: 1. Confirmation that the agent for suppressing or inhibiting an amyloid fibril formation of the present invention has a therapeutic effect against cutaneous amyloidosis.
patient one observed with symptoms of cutaneous amyloidosis specific pigment-associating invasion and itch in the upper back had been treated without tranilast for an initial duration of 4 years, however, no therapeutic effect was observed. Therefore, the treatment shifted to the use of tranilast. The above-mentioned patient was administered orally with a 100 mg capsule of tranilast (brand name: Rizaben, Kissei Pharmaceutical Co., Ltd.) three times a day. […] Worsening or relapse of rash was not observed at least 3 years afterwards.
Therefore, the treatment shifted to the use of tranilast. The above-mentioned patient was administered orally with a 100 mg capsule of tranilast (brand name: Rizaben, Kissei Pharmaceutical Co., Ltd.) three times a day. From day 16 (Jul. 16, 2014) (see FIG. 1B) after the start of oral administration on Jun. […] The degree of amelioration of rash increased day by day (see FIGS. 1C to 1E).
A patient observed with chronic eczema with rash along with strong itch in the upper back for several years started the treatment with tranilast. The patient was administered orally with a 100 mg capsule of tranilast (brand name: Rizaben, Kissei Pharmaceutical Co., Ltd.) three times a day. When the oral administration started on Jul. 29, 2014, amyloid deposited brown papule was densely lichenified (see FIG. 2A).

dementia = test: Oral tranilast in a patient with dementia (Case 4), testing methods for dementia HDS-R and MMSE
Experimental: as §1, with “dementia (patient two)” for “Alzheimer's disease (person)”, “day.” for “day. About 5 months after the start of administration of tranilast on Oct.”

[1] = Case 1, 100 mg capsule orally three times a day, within another 1 month (about 2 months after start)
[2] = 1 year and 4 months after start of administration (December 2013)

With `COc1ccc(/C=C/C(=O)Nc2ccccc2C(=O)O)cc1OC` [tranilast, N-(3,4-dimethoxycinnamoyl)anthranilic acid] as the compound, how does the “effect on the symptoms of Alzheimer's type dementia by HDS-R and MMSE” value (Alzheimer's disease; 100 mg capsule orally three times a day, about 5 months after start) read?
The value was “clear ameliorating effect”.

What about the “HDS-R Value” (Alzheimer's disease; about 5 months after start (Mar. 19, 2015), value at start of administration 9) of the same compound?
Its value is 12.

And the “MMSE Value” (Alzheimer's disease; about 5 months after start (Mar. 19, 2015), value at start of administration 14)?
Its value is 22.

What about the pigmentation (cutaneous amyloidosis; Case 1, upper back, 100 mg capsule orally three times a day, about 1 month after start of oral administration) of the same compound?
The pigmentation was “started to thin”.

What about the itch (cutaneous amyloidosis; [1]) of the same compound?
Its itch is “reduced”.

What about the rash (cutaneous amyloidosis; [1]) of the same compound?
The rash was “largely ameliorated”.

And the “worsening or relapse of rash” value (cutaneous amyloidosis; Case 1, at least 3 years afterwards)?
Its value is “not observed”.

What about the “amyloid deposited brown papule” value (cutaneous amyloidosis; Case 2, 100 mg capsule orally three times a day, day 151 after start of oral administration) of the same compound?
Its value is “almost disappeared”.

What about the “amyloid deposited brown papule” value (cutaneous amyloidosis; Case 2, 100 mg capsule orally three times a day, from day 16 after start of oral administration) of the same compound?
The value was “thinned, decreased in size, and ameliorated clearly”.

And the “condition (papule almost disappeared) maintained until” value (cutaneous amyloidosis; Case 2, day after start of oral administration)?
Its value is ≥ 238 days.

What about the “symptoms (densely lichenified amyloid deposited brown papule)” value (cutaneous amyloidosis; Case 3, upper back, 100 mg capsule orally three times a day, day 15 after start) of the same compound?
The value was “improvement in the symptoms was observed”.

And the “symptoms (densely lichenified amyloid deposited brown papule)” value (cutaneous amyloidosis; Case 3, 100 mg capsule orally three times a day, day 29 after start)?
Its value is “clear improvement in the symptoms was observed”.

What about the “improved condition maintained until” value (cutaneous amyloidosis; Case 3, day after start of oral administration) of the same compound?
The value was ≥ 89 days.

What about the “effect by two testing methods for dementia (HDS-R and MMSE)” value (dementia; 100 mg capsule orally three times a day, 1 year and 4 months after start) of the same compound?
Its value is “clear ameliorating effect”.

What about the “HDS-R Value” (dementia; [2]) of the same compound?
Its value is 20.

And the “MMSE Value” (dementia; [2])?
The value was 25.

What about the “HDS-R Value” (dementia; 5 months after start of administration (January 2013), 23 at 1 year and 5 months before start) of the same compound?
The value was 15.

And the “MMSE Value” (dementia; 5 months after start of administration (January 2013), 27 at 1 year and 5 months before, 28 at 3 years and 10 months before)?
Its value is 22.
